Data as given in ChEMBL document CHEMBL4837241, “Identification of Betulinic Acid Derivatives as Potent TGR5 Agonists with Antidiabetic Effects via Humanized TGR5H88Y Mutant Mice” (J Med Chem, 2021).
Activity calls are given as the source filed them. The calls are words filed in the database; no cut-off is given here.

Columns and labels:
[1] = target: T1, G-protein coupled bile acid receptor 1 (Homo sapiens, UniProt Q8TDU6); assay: Agonist activity at N-terminal HA-tagged human TGR5 expressed in HEK293 cells assessed as […] in intracellular cAMP levels incubated for 30 mins by Lance Ultra cAMP assay; type: functional, cell-based
T1 sequence (Q8TDU6 whole entry): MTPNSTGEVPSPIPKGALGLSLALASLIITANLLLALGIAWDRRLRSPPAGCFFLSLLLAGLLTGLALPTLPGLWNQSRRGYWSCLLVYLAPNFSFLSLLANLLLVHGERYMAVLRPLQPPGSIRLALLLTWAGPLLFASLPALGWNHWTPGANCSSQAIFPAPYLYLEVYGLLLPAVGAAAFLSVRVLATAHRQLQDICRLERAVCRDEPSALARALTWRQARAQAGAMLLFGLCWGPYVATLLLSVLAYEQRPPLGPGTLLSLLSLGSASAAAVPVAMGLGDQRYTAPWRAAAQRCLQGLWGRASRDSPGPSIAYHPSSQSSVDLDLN

[2] = target: T2, G-protein coupled bile acid receptor 1 (Homo sapiens) (UniProt Q8TDU6); assay: Agonist activity at N-terminal HA-tagged human TGR5 expressed in HEK293 cells assessed as […] in intracellular cAMP levels incubated for 30 mins by Lance Ultra cAMP assay relative to control; type: functional, cell-based; conditions: filed as agonist
T2 sequence (whole entry): T1 sequence (Q8TDU6 whole entry)

[3] = target: T3, Bile acid receptor (Homo sapiens) (UniProt Q96RI1); assay: Agonist activity at human FXR (247 to 467 residues) expressed in HEK293 cells at 100 uM incubated for 8 hrs by luciferase assay; type: cell-based
T3 sequence (whole entry): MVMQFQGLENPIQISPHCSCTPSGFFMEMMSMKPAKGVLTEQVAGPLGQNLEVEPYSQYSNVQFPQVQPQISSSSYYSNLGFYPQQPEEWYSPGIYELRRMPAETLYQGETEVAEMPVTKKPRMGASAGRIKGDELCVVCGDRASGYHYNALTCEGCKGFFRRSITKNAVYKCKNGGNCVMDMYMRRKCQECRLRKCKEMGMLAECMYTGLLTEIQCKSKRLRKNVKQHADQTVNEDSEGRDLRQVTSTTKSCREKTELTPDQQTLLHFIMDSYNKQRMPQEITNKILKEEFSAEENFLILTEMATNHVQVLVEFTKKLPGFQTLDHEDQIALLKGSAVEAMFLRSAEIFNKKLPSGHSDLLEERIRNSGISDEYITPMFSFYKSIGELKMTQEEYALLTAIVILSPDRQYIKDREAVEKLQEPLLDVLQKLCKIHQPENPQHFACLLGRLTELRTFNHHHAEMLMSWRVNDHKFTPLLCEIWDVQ

[4] = target: T4, G-protein coupled bile acid receptor 1 (Mus musculus) (UniProt Q80SS6); assay: Agonist activity at N-terminal HA-tagged mouse TGR5 expressed in HEK293 cells assessed as […] in intracellular cAMP levels incubated for 30 mins by Lance Ultra cAMP assay relative to control; type: functional, cell-based; conditions: filed as agonist
T4 sequence (whole entry): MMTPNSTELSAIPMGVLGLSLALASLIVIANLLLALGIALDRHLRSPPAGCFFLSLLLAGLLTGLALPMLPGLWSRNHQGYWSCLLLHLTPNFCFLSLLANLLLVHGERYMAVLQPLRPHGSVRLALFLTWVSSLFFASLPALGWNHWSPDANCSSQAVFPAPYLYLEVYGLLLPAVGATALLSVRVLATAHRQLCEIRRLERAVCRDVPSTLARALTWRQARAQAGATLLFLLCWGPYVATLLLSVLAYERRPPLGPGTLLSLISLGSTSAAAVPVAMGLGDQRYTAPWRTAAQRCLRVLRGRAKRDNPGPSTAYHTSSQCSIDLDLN

HEK293 = assay: Agonist activity at N-terminal HA-tagged dog TGR5 expressed in HEK293 cells assessed as […] in intracellular cAMP levels incubated for 30 mins by Lance Ultra cAMP assay relative to control; type: cell-based; conditions: Canis lupus familiaris, filed as agonist

CC(C)[C@@H]1CC[C@]2(C(=O)OCC(=O)O)CC[C@]3(C)[C@H](CC[C@@H]4[C@@]5(C)CC[C@@H](OC(=O)NC6CC6)C(C)(C)[C@@H]5CC[C@]43C)[C@@H]12 was tested, and the EC50 [1] was 306 nM, the Emax [2] was 98% and the Activity [3] was “inactive”.
In the case of COCC(=O)O[C@@H]1CC[C@]2(C)[C@H]3CC[C@@H]4[C@H]5[C@H](C(C)C)CC[C@]5(C(=O)O)CC[C@@]4(C)[C@]3(C)CC[C@H]2C1(C)C, the EC50 [1] is reported as 25.2 nM, the Emax [2] is reported as 100% and the Activity [3] is reported as “inactive”.
With C[C@@H](O)[C@@H]1CC[C@]2(C(=O)O)CC[C@]3(C)[C@H](CC[C@@H]4[C@@]5(C)CC[C@@H](OC(=O)NC6CC6)C(C)(C)[C@@H]5CC[C@]43C)[C@@H]12 the EC50 [1] was 38 nM, the Emax [2] was 99% and the Activity [3] was “inactive”.
With CO/N=C(/C)[C@@H]1CC[C@]2(C(=O)O)CC[C@]3(C)[C@H](CC[C@@H]4[C@@]5(C)CC[C@@H](OC(=O)NC6CC6)C(C)(C)[C@@H]5CC[C@]43C)[C@@H]12 the EC50 [1] was 132 nM, the Emax [2] was 97% and the Activity [3] was “inactive”.
For CC(C)[C@@H]1CC[C@]2(NC(=O)NCC(=O)O)CC[C@]3(C)[C@H](CC[C@@H]4[C@@]5(C)CC[C@@H](OC(=O)NC6CC6)C(C)(C)[C@@H]5CC[C@]43C)[C@@H]12, the EC50 [1] was 174 nM, the Emax [2] was 99% and the Activity [3] was “inactive”.
In the case of CC1(C)[C@H](OC(=O)NC2CC2)CC[C@]2(C)[C@H]3CC[C@@H]4[C@H]5[C@H]([C@@]6(C)CO6)CC[C@]5(C(=O)O)CC[C@@]4(C)[C@]3(C)CC[C@@H]12, the EC50 [1] is reported as 18.6 nM, the Emax [2] is reported as 99% and the Activity [3] is reported as “inactive”.
With CC(C)[C@@H]1CC[C@]2(C(=O)O)CC[C@]3(C)[C@H](CC[C@@H]4[C@@]5(C)CC[C@@H](OC(=O)Nc6cc[nH]n6)C(C)(C)[C@@H]5CC[C@]43C)[C@@H]12 the EC50 [1] was 175 nM, the Emax [2] was 94% and the Activity [3] was “inactive”.
With C[C@H](CCC(=O)O)[C@H]1CC[C@H]2[C@@H]3CC[C@@H]4C[C@H](O)CC[C@]4(C)[C@H]3CC[C@]12C the Activity [4] was “Active” and the Activity (HEK293) was “Active”.
With CC(C)[C@@H]1CC[C@]2(C(=O)O)CC[C@]3(C)[C@H](CC[C@@H]4[C@@]5(C)CC[C@@H](OC(N)=O)C(C)(C)[C@@H]5CC[C@]43C)[C@@H]12 the EC50 [1] was 30.7 nM, the Emax [2] was 100% and the Activity [3] was “inactive”.
CC(C)[C@@H]1CC[C@]2(C(=O)O)CC[C@]3(C)[C@H](CC[C@@H]4[C@@]5(C)CC[C@@H](OC(=O)NC6CCC6)C(C)(C)[C@@H]5CC[C@]43C)[C@@H]12 was tested, and the EC50 [1] was 26.7 nM, the Emax [2] was 92% and the Activity [3] was “inactive”.
For CNC(=O)O[C@@H]1CC[C@]2(C)[C@H]3CC[C@@H]4[C@H]5[C@H](C(C)C)CC[C@]5(C(=O)O)CC[C@@]4(C)[C@]3(C)CC[C@H]2C1(C)C, the EC50 [1] was 17.8 nM, the Emax [2] was 98% and the Activity [3] was “inactive”.
For CC(C)[C@@H]1CC[C@]2(C(=O)O)CC[C@]3(C)[C@H](CC[C@@H]4[C@@]5(C)CC[C@@H](OC(=O)NC6CCCC6)C(C)(C)[C@@H]5CC[C@]43C)[C@@H]12, the EC50 [1] was 29.2 nM, the Emax [2] was 92% and the Activity [3] was “inactive”.
For CC(C)[C@@H]1CC[C@]2(NC(=O)OCC(=O)O)CC[C@]3(C)[C@H](CC[C@@H]4[C@@]5(C)CC[C@@H](OC(=O)NC6CC6)C(C)(C)[C@@H]5CC[C@]43C)[C@@H]12, the EC50 [1] was 271 nM, the Emax [2] was 98% and the Activity [3] was “inactive”.
With CCN(C)C(=O)O[C@@H]1CC[C@]2(C)[C@H]3CC[C@@H]4[C@H]5[C@H](C(C)C)CC[C@]5(C(=O)O)CC[C@@]4(C)[C@]3(C)CC[C@H]2C1(C)C the EC50 [1] was 211 nM, the Emax [2] was 92% and the Activity [3] was “inactive”.
For CC(=O)[C@@H]1CC[C@]2(C(=O)O)CC[C@]3(C)[C@H](CC[C@@H]4[C@@]5(C)CC[C@@H](OC(=O)NC6CC6)C(C)(C)[C@@H]5CC[C@]43C)[C@@H]12, the EC50 [1] was 13.1 nM, the Emax [2] was 100% and the Activity [3] was “inactive”.
In the case of CCOC(=O)O[C@@H]1CC[C@]2(C)[C@H]3CC[C@@H]4[C@H]5[C@H](C(C)C)CC[C@]5(C(=O)O)CC[C@@]4(C)[C@]3(C)CC[C@H]2C1(C)C, the EC50 [1] is reported as 80 nM, the Emax [2] is reported as 92% and the Activity [3] is reported as “inactive”.
In the case of CCCNC(=O)O[C@@H]1CC[C@]2(C)[C@H]3CC[C@@H]4[C@H]5[C@H](C(C)C)CC[C@]5(C(=O)O)CC[C@@]4(C)[C@]3(C)CC[C@H]2C1(C)C, the EC50 [1] is reported as 26.9 nM, the Emax [2] is reported as 96% and the Activity [3] is reported as “inactive”.
CC(C)[C@@H]1CC[C@]2(C(=O)O)CC[C@]3(C)[C@H](CC[C@@H]4[C@@]5(C)CC[C@@H](OC(=O)Nc6ccc(F)cc6)C(C)(C)[C@@H]5CC[C@]43C)[C@@H]12 was tested, and the EC50 [1] was 1510 nM, the Emax [2] was 75% and the Activity [3] was “inactive”.
For CC(C)[C@@H]1CC[C@]2(C(=O)O)CC[C@]3(C)[C@H](CC[C@@H]4[C@@]5(C)CC[C@@H](OC(=O)CO)C(C)(C)[C@@H]5CC[C@]43C)[C@@H]12, the EC50 [1] was 27 nM, the Emax [2] was 100% and the Activity [3] was “inactive”.
CCCS(=O)(=O)O[C@@H]1CC[C@]2(C)[C@H]3CC[C@@H]4[C@H]5[C@H](C(C)C)CC[C@]5(C(=O)O)CC[C@@]4(C)[C@]3(C)CC[C@H]2C1(C)C was tested, and the EC50 [1] was 77.6 nM, the Emax [2] was 98% and the Activity [3] was “inactive”.
CNS(=O)(=O)O[C@@H]1CC[C@]2(C)[C@H]3CC[C@@H]4[C@H]5[C@H](C(C)C)CC[C@]5(C(=O)O)CC[C@@]4(C)[C@]3(C)CC[C@H]2C1(C)C was tested, and the EC50 [1] was 45.4 nM, the Emax [2] was 99% and the Activity [3] was “inactive”.
For C[C@H](CCC(=O)O)[C@H]1CC[C@H]2[C@@H]3[C@H](O)C[C@@H]4C[C@H](O)CC[C@]4(C)[C@H]3C[C@H](O)[C@]12C, the Activity [4] was “Active” and the Activity (HEK293) was “Active”.
For CCNC(=O)O[C@@H]1CC[C@]2(C)[C@H]3CC[C@@H]4[C@H]5[C@H](C(C)C)CC[C@]5(C(=O)O)CC[C@@]4(C)[C@]3(C)CC[C@H]2C1(C)C, the EC50 [1] was 13 nM, the Emax [2] was 100% and the Activity [3] was “inactive”.
For COc1ccc(NC(=O)O[C@@H]2CC[C@]3(C)[C@H]4CC[C@@H]5[C@H]6[C@H](C(C)C)CC[C@]6(C(=O)O)CC[C@@]5(C)[C@]4(C)CC[C@H]3C2(C)C)cc1, the EC50 [1] was 230 nM, the Emax [2] was 91% and the Activity [3] was “inactive”.
CC(C)[C@@H]1CC[C@]2(N)CC[C@]3(C)[C@H](CC[C@@H]4[C@@]5(C)CC[C@@H](OC(=O)NC6CC6)C(C)(C)[C@@H]5CC[C@]43C)[C@@H]12 was tested, and the EC50 [1] was 867 nM, the Emax [2] was 97% and the Activity [3] was “inactive”.
For CC(C)[C@@H]1CC[C@]2(C(=O)NCC(=O)O)CC[C@]3(C)[C@H](CC[C@@H]4[C@@]5(C)CC[C@@H](OC(=O)NC6CC6)C(C)(C)[C@@H]5CC[C@]43C)[C@@H]12, the EC50 [1] was 380 nM, the Emax [2] was 96% and the Activity [3] was “inactive”.
In the case of CC(C)NC(=O)O[C@@H]1CC[C@]2(C)[C@H]3CC[C@@H]4[C@H]5[C@H](C(C)C)CC[C@]5(C(=O)O)CC[C@@]4(C)[C@]3(C)CC[C@H]2C1(C)C, the EC50 [1] is reported as 124 nM, the Emax [2] is reported as 97% and the Activity [3] is reported as “inactive”.
For CC(C)[C@@H]1CC[C@]2(C(=O)O)CC[C@]3(C)[C@H](CC[C@@H]4[C@@]5(C)CC[C@@H](OC(=O)NC6CC6)C(C)(C)[C@@H]5CC[C@]43C)[C@@H]12, the EC50 [1] was 10.1 nM, the Emax [2] was 99% and the Activity [3] was “inactive”.
For CCNS(=O)(=O)O[C@@H]1CC[C@]2(C)[C@H]3CC[C@@H]4[C@H]5[C@H](C(C)C)CC[C@]5(C(=O)O)CC[C@@]4(C)[C@]3(C)CC[C@H]2C1(C)C, the EC50 [1] was 68.6 nM, the Emax [2] was 98% and the Activity [3] was “inactive”.
For CC(C)[C@@H]1CC[C@]2(C(=O)O)CC[C@]3(C)[C@H](CC[C@@H]4[C@@]5(C)CC[C@@H](OC(=O)N6CCOCC6)C(C)(C)[C@@H]5CC[C@]43C)[C@@H]12, the EC50 [1] was 452 nM, the Emax [2] was 95% and the Activity [3] was “inactive”.
